Molecular target: T1, SERPINB3 (SB3) (Homo sapiens, UniProt P29508)
T1 sequence (P29508 1-390): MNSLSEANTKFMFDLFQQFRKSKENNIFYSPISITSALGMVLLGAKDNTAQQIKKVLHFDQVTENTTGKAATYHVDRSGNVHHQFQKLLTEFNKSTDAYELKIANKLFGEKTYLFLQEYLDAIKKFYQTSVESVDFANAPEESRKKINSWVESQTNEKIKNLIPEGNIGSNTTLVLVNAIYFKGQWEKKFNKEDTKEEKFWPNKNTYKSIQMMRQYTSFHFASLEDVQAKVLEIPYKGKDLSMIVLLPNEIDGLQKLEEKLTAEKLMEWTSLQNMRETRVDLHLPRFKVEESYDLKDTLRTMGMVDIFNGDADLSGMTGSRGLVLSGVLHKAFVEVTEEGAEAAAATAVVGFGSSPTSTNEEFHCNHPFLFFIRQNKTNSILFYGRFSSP
Type: binding
Conditions: SPR, increasing concentrations

Sequence: CPNFDWDPNNSNAGFAPDLQHDPFFGLP [CysPreS1]
- interaction with SB3 (in words): did not reveal any interaction

Source: publication PMC5247774 (Bioconjugate Chemistry, 2016)
